Experimental data taken from EP0637237B1, “CALCIUM RECEPTOR-ACTIVE MOLECULES” (BRIGHAM AND WOMEN'S HOSPITAL, INC., priority 1993, dated 1994).
Like-named read-outs stand apart in the source and are kept apart here. Blank lines part the entries; values can stand above or below the molecule they belong to.

Experiments:
[1] = Net positive charge of the molecule; format: physicochemical; conditions: Table 1; effective charge at physiological pH
Ca^2+ receptor = molecular target: T1, Ca^2+ receptor (Homo sapiens, UniProt P41180); assay: Cl- current in Xenopus oocytes injected with human parathyroid poly(A)+ mRNA; format: cell-based; conditions: hexacyclen 135 µM, neomycin 100 µM, NPS 382 5 mM
T1 construct: Oocytes were injected with poly(A)^+-enriched mRNA from human parathyroid tissue (hyperplastic glands from a case of secondary HPT); expressed in transfected cells; host or cells: Xenopus laevis oocytes injected with poly(A)+ mRNA from hyperplastic human parathyroid glands
T1 sequence (P41180 20-1078): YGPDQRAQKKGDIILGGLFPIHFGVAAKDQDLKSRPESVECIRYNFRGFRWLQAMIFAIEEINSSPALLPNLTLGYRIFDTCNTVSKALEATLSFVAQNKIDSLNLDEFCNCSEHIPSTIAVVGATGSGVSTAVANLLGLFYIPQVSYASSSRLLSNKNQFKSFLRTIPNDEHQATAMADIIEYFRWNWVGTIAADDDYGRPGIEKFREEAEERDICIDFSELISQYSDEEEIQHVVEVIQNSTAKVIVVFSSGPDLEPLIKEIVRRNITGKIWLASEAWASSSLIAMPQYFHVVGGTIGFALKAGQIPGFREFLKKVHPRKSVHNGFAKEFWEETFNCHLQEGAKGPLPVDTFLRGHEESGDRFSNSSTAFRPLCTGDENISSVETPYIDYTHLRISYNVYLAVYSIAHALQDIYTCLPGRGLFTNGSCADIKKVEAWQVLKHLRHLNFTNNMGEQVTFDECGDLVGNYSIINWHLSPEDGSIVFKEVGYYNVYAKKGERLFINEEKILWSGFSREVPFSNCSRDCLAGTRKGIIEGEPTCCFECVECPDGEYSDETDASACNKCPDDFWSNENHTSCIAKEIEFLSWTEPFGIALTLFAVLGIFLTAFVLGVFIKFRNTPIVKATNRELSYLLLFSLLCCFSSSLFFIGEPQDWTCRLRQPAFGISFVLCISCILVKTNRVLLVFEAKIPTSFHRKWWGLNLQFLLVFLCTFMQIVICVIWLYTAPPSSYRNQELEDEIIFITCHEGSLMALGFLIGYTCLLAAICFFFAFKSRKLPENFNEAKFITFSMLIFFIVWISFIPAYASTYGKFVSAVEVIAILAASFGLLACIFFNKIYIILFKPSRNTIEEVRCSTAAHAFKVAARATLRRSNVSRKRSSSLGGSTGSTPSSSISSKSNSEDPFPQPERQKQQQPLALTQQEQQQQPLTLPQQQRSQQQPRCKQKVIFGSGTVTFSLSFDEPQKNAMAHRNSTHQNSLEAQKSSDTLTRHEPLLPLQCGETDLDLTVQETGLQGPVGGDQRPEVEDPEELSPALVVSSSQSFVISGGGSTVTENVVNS

[2] = Serum or whole blood ionized Ca2+ and PTH in rats in vivo; parameters: species or system Sprague-Dawley rats
Description: Male Sprague-Dawley rates (200 g) were maintained on a low calcium diet for one week prior to receiving test substance or vehicle as control. Blood was collected from the tail vein three hours after the intra-peritoneal administration of NPS 467. […]

[3] = molecular target: T2, parathyroid cell Ca^2+ receptor (Bos taurus, UniProt P35384); format: cell-based, bovine
T2 sequence (P35384 20-1085): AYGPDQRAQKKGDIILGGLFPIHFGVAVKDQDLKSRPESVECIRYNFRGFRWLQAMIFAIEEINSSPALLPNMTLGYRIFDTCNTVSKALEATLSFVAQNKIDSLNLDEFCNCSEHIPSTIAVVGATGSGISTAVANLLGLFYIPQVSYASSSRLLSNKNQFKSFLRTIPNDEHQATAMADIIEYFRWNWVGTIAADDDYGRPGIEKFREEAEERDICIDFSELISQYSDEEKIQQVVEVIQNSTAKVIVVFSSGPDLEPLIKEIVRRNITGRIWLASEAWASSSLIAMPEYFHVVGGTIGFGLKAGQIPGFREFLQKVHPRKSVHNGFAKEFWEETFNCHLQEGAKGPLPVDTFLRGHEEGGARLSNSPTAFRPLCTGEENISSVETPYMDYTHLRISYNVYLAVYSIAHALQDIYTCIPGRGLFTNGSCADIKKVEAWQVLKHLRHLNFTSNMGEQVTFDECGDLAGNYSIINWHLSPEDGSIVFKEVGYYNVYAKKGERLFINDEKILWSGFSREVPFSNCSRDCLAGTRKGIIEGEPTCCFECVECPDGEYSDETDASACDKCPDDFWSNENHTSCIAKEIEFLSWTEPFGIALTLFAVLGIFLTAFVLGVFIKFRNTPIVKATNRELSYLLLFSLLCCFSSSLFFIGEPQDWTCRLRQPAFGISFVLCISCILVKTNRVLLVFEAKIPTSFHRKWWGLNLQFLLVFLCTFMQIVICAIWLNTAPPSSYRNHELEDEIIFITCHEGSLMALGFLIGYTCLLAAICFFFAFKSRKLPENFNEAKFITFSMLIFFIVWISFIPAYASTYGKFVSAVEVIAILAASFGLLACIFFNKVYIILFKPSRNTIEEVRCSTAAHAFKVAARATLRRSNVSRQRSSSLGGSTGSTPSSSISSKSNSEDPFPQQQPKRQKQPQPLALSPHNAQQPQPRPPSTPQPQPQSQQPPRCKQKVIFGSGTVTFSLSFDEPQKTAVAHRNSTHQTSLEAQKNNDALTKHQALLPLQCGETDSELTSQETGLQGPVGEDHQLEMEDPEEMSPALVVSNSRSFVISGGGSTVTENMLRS

[4] = Serum ionized Ca2+ in parathyroidectomized rats; format: in vivo; conditions: single dose 10 mg/kg i.p., over a period of 6 hours
Description: To determine the primary target tissue upon which NPS 467 acts to cause a hypocalcemic response, the para thyroid glands in rats were surgically removed.

[5] = Serum ionized Ca2+ in the 5/6 nephrectomized rat (secondary hyperparathyroidism model); format: in vivo, Sprague-Dawley rats; conditions: 10 mg/kg i.p.
Description: An accepted and widely used animal model of secondary hyperparathyroidism arising from chronic renal failure is the 5/6 nephrectomized rat. […] Male Sprague-Dawley rats (250 g) received a 5/6 nephrectomy and were allowed to recover for 2 weeks. At this time they were normocalcemic (due to elevated levels of serum PTH).

[6] = molecular target: T3, parathyroid cell Ca^2+ receptor (Homo sapiens, UniProt P41180); assay: [Ca2+]i (fura-2) in human parathyroid cells; format: cell-based; conditions: human parathyroid cells (adenoma)
T3 construct: Dissociated parathyroid cells were prepared from a parathyroid adenoma obtained by surgery from a patient with primary hyperparathyroidism; endogenous in cells; host or cells: primary human parathyroid cells from adenomatous or hyperplastic glands
T3 sequence (P41180 20-1078): T1 sequence (P41180 20-1078)

C-cell Ca^2+ receptor = molecular target: T4, C-cell Ca^2+ receptor (Rattus norvegicus, UniProt P48442); format: cell-based; conditions: Table 6; rMTC 6-23 cells, fura-2; inactive = no increase in cytosolic Ca2+ at 1-5 mM
T4 sequence (P48442 20-1079): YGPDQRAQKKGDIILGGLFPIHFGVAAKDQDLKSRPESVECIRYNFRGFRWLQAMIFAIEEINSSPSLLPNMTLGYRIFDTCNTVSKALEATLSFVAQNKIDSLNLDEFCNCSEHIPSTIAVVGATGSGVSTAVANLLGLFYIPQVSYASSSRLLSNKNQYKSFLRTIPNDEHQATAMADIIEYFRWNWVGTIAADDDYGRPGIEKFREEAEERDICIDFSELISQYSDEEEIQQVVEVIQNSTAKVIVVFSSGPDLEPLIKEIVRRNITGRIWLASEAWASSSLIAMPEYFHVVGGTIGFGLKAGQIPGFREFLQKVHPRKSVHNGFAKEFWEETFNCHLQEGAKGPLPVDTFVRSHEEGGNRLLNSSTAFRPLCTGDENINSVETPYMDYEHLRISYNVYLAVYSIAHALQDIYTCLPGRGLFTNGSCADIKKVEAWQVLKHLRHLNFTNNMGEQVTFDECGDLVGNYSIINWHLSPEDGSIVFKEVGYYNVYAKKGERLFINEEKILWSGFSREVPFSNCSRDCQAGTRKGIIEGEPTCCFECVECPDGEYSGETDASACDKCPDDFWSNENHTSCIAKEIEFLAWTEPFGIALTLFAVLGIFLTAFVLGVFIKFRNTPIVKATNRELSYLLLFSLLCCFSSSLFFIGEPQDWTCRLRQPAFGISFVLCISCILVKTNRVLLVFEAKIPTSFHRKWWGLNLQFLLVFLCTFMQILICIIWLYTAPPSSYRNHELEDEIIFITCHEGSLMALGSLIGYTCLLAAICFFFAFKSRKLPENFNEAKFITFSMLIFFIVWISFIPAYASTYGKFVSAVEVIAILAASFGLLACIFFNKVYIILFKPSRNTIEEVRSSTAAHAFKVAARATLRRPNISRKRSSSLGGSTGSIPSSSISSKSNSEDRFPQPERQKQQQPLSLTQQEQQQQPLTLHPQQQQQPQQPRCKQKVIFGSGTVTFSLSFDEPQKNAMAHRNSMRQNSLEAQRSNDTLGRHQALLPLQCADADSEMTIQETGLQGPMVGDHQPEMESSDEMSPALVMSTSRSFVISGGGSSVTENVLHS

[7] = normal calcium-replete diet, 10 mg/kg i.p.

Molecule: N^1,N^1,N^5,N^14,N^14-tetrakis-(3-aminopropyl)spermine [NPS 382]
- Net (+) Charge [1]: +8
- mobilization of intracellular Ca2+ in oocytes expressing the Ca2+ receptor (Ca^2+ receptor): effective

- [Ca2+]i response in Ca2+-free buffer ([3]; 30 àM NPS R-467 alone, Ca2+-free buffer): no increase in [Ca^2+]i
- [Ca2+]i response in Ca2+-free buffer after neomycin ([3]; NPS R-467 30 µM added after 100 µM neomycin): did not cause an increase in [Ca^2+]i
Molecule: COc1cccc([C@@H](C)NCCCc2ccccc2)c1 [NPS R-467]
- potency in lowering serum Ca2+ in vivo, enantiomers compared ([2]; each compound at 5 mg/kg body weight, Fig. 42): more potent than the S-isomer in lowering serum Ca^2+ in vivo
- time serum ionized Ca2+ remained depressed [2, 7]: up to 6 hours
- time to maximal fall in serum ionized Ca2+ [2, 7]: ≤ 1 h
- decrease in serum ionized Ca2+ from the control level ([2]; normal calcium-replete diet, single dose 10 mg/kg i.p., at 1 hr): 22%
- [Ca2+]i response in Ca2+-free buffer after neomycin ([3]; NPS R-467 30 µM added after 10 µM neomycin): elicited a transient increase in [Ca^2+]i
- change in serum ionized Ca2+ levels [4]: did not cause any change in serum ionized Ca^2+ levels
- time of the fall in serum ionized Ca2+ [5]: ≤ 2 h
- serum ionized Ca2+ levels ([5]; 5/6 nephrectomy, 2 weeks recovery): 83 % of controls

Molecule: COc1cccc([C@@H](C)NCCCc2ccccc2Cl)c1 [NPS R-568]
- EC50 ([3]; Table 6, […], fura-2, inactive = no increase in cytosolic Ca2+ at 1-5 mM, read-out: EC50(µM) PARATHYROID): 0.6 µM
- EC50 [6]: 3 µM

- Net (+) Charge [1]: +6
- fold increase in potency over pentaethylenehexamine (straight chain analog) [3]: 25 fold
- EC50 ([3]; Table 1, mobilization of intracellular Ca2+ in parathyroid cells, read-out: EC50): 20 µM
- EC50 ([3]; […]): 20 µM
Molecule: C1CNCCNCCNCCNCCNCCN1 [hexacyclen, 1,4,7,10,13,16-hexaaza-cyclooctadecane]
- mobilization of intracellular Ca2+ in oocytes expressing the Ca2+ receptor (Ca^2+ receptor): caused the mobilization of intracellular Ca^2+

Molecule: NCCCNCCCCNCCCNCCCN(O)CCCNC(=O)Cc1c[nH]c2cccc(O)c12 [NPS 015]
- EC50(µM) C-CELL (C-cell Ca^2+ receptor): inactive
